From US7652032B2, “5-Thioxylopyranose compounds” (Laboratoires Fournier S.A., priority 2007, dated 2010)

test system: venous thrombosis; assay: venous thrombosis test in rats (venous stasis with hypercoagulation, Wessler technique, factor Xa), oral administration; format: in vivo; conditions: dose 6 mg/kg, thrombosis induced 2 h after administration, male Wistar rats
Protocol: The antithrombotic activity of the compounds according to the invention was studied in vivo in rats by virtue of a test that reproduces a venous thrombosis. The venous thrombosis was induced according to the protocol described in Thromb. Haemost. 1992, 67 (1), 176-179. The activity by oral administration was studied according to the following operating protocol: The experiment is carried out on male Wistar rats, not fasting, weighing 250 to 280 g and divided up into groups, each of 8 to 10 animals. The test products are administered orally (by tube) in solution or in suspension in a solution of methylcellulose (0.5% in water). The concentration of the compounds is calculated such that an amount of solution of 10 ml/kg is absorbed orally. A thrombosis is induced at a time T (between 2 hours and 8 hours) after administration of the product, and the thrombus formed is removed and weighed. In order to induce this thrombosis, a venous stasis with hypercoagulation is produced, according to the technique described by WESSLER (J. Applied Physiol. 1959, 943-946) using, as hypercoagulating agent, a solution of activated factor X (Xa), supplied by the company Biogenic (Montpellier), and having a concentration of 7.5 nKat/kg. The venous stasis is produced exactly 10 seconds after the injection of the hypercoagulating agent. The activity of the compounds tested was verified at various doses, after they were administered. The thrombosis was induced between 2 hours and 8 hours after administration of the compound.

| SMILES | Activity (%): percentage inhibition of the formation of the thrombus relative to the weight of the thrombus formed in the absence of the compound |
| --- | --- |
| Cc1cn2cccc(O[C@@H]3SC[C@@H](O)[C@H](O)[C@H]3O)c2n1 [Example 2, 2-methylimidazo[1,2-α]pyridin-8-yl 5-thio-β-D-xylopyranoside] | 94% |
| CC(=O)c1cc2cccc(O[C@@H]3SC[C@@H](O)[C@H](O)[C@H]3O)c2o1 [Example 8, 2-acetyl-7-benzofuranyl 5-thio-β-D-xylopyranoside] | 91% |
| Cc1nc2cc(O[C@@H]3SC[C@@H](O)[C@H](O)[C@H]3O)ccc2s1 [Example 12, 2-methyl-5-benzothiazolyl 5-thio-β-D-xylopyranoside] | 74% |
| O[C@@H]1[C@@H](O)[C@H](Oc2cccc3ocnc23)SC[C@H]1O [Example 16, 4-benzoxazolyl 5-thio-β-D-xylopyranoside] | 80% |
| O[C@@H]1[C@@H](O)[C@H](Oc2cccc3ccoc23)SC[C@H]1O [Example 18, 7-benzofuranyl 5-thio-β-D-xylopyranoside] | 62% |
| O[C@@H]1[C@@H](O)[C@H](Oc2cccn3ncnc23)SC[C@H]1O [Example 39, [1,2,4]triazolo[1,5-a]pyridin-8-yl 5-thio-β-D-xylopyranoside] | 100% |
| O=C(O)C(F)(F)F.O=C(O)Cc1cn2cccc(O[C@@H]3SC[C@@H](O)[C@H](O)[C@H]3O)c2n1 [Example 43, 8-[(5-thio-β-D-xylopyranosyl)oxy]-imidazo[1,2-α]pyridine-2-acetic acid, salt with trifluoroacetic acid] | 53% |
